Experimental data reported in publication PMC2719774 (European journal of pharmaceutics and biopharmaceutics : …, 2009).
Values joined by “and” are separate entries in the source; they are usually repeats but may differ in a detail not shown here. Identical values can stand only once.

Key:
in vitro = conditions: dog, MDCK-MDR1
CYP2D6 = CYP2D6 (Homo sapiens, UniProt P10635); experiment: In vitro metabolism screening with recombinant CYP2D6; format: in vitro ADME; conditions: 1 h, 37°C
CYP1A1 = biological target: T1, CYP1A1 (Homo sapiens, UniProt P04798); experiment: In vitro metabolism screening with recombinant CYP1A1; format: in vitro ADME; conditions: 1 h, 37°C
T1 sequence (P04798 1-512): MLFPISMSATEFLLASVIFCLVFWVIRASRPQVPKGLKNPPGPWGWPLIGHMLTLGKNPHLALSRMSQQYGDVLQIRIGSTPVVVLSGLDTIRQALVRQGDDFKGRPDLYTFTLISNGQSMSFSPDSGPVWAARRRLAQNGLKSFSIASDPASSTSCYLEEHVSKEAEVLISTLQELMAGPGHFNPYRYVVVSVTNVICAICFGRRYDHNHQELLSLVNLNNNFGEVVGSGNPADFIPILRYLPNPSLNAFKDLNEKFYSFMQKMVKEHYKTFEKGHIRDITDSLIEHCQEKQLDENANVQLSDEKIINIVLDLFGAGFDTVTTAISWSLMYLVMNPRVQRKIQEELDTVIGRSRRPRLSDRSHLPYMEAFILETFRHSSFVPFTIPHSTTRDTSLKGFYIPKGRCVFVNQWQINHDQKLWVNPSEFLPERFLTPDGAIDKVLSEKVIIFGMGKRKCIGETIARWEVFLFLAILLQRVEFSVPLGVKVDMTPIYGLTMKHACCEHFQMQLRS

CYP2C18 = biological target: T2, CYP2C18 (Homo sapiens, UniProt P33260); experiment: In vitro metabolism screening with recombinant CYP2C18; format: in vitro ADME; conditions: 1 h, 37°C
T2 sequence (P33260 26-490): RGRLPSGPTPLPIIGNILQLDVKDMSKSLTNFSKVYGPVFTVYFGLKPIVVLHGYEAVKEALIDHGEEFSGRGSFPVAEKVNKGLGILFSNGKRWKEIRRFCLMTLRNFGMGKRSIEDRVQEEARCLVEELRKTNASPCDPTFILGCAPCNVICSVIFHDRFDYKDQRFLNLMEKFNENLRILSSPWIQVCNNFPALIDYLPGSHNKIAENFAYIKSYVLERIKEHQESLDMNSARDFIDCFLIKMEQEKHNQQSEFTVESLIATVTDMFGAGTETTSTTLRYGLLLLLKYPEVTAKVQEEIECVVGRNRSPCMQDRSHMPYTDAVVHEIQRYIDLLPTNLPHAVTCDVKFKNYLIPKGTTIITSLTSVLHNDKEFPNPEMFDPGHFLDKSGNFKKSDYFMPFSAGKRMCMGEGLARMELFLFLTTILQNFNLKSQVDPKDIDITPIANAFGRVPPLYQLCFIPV

CYP2E1 = CYP2E1 (Homo sapiens, UniProt P05181); experiment: In vitro metabolism screening with recombinant CYP2E1; format: in vitro ADME; conditions: 1 h, 37°C
CYP2E1, sequence (P05181 whole entry): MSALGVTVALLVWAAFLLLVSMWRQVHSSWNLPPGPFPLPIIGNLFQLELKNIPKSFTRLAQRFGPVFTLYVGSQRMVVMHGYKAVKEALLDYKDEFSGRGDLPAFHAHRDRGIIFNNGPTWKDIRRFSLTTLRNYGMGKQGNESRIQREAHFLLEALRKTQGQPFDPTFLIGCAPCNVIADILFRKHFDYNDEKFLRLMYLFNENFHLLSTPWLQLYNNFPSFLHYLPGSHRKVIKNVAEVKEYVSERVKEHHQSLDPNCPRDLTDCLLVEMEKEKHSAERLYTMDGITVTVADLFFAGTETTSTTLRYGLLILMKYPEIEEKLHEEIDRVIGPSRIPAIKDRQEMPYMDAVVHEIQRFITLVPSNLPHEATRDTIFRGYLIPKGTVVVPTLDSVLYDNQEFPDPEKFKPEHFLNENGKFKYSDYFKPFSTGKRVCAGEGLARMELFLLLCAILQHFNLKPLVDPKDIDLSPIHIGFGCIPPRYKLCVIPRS

UGT2B7 = biological target: T3, UGT2B7 (Homo sapiens, UniProt P16662); experiment: In vitro metabolism screening with UGT2B7 Supersomes; format: in vitro ADME; conditions: 37°C
T3 sequence (P16662 24-529): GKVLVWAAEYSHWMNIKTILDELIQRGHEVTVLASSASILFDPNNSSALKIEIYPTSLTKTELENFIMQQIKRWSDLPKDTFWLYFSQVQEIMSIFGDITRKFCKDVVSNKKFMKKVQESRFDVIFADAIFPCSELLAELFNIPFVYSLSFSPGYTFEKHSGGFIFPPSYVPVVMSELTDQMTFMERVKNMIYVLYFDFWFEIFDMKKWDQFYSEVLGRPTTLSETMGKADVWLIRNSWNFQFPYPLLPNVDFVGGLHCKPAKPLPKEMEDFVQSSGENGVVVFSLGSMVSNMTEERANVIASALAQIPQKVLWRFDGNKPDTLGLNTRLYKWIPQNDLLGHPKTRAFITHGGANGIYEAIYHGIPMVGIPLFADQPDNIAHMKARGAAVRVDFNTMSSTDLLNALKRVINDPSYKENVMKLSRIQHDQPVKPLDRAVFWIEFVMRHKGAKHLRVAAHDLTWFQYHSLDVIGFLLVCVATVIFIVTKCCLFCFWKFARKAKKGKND

[1] = Single-dose pharmacokinetics and brain distribution in rats; format: in vivo, male Sprague Dawley rats; conditions: rat; for t1/2 / half-life: 10 mg/kg i.p.
[2] = tested on: MDCK-MDR1 cell monolayers; conditions: 5 μM, 37°C, PBS; UV-HPLC limit of detection 100 ng/ml
[3] = humans ref 13; cited from earlier work
P-gp (MDR1) = experiment: in vitro; conditions: dog, MDCK-MDR1
[4] = rhesus monkeys, plasma, single dose ref 24; cited from earlier work
[5] = PET imaging, female baboons ref 25; cited from earlier work
recombinant human P-gp = recombinant human P-gp (Homo sapiens, UniProt P08183); experiment: P-gp ATPase activity; conditions: for Fold Stimulation of P-gp ATPase activity: relative to non treated
recombinant human P-gp, sequence (P08183 whole entry): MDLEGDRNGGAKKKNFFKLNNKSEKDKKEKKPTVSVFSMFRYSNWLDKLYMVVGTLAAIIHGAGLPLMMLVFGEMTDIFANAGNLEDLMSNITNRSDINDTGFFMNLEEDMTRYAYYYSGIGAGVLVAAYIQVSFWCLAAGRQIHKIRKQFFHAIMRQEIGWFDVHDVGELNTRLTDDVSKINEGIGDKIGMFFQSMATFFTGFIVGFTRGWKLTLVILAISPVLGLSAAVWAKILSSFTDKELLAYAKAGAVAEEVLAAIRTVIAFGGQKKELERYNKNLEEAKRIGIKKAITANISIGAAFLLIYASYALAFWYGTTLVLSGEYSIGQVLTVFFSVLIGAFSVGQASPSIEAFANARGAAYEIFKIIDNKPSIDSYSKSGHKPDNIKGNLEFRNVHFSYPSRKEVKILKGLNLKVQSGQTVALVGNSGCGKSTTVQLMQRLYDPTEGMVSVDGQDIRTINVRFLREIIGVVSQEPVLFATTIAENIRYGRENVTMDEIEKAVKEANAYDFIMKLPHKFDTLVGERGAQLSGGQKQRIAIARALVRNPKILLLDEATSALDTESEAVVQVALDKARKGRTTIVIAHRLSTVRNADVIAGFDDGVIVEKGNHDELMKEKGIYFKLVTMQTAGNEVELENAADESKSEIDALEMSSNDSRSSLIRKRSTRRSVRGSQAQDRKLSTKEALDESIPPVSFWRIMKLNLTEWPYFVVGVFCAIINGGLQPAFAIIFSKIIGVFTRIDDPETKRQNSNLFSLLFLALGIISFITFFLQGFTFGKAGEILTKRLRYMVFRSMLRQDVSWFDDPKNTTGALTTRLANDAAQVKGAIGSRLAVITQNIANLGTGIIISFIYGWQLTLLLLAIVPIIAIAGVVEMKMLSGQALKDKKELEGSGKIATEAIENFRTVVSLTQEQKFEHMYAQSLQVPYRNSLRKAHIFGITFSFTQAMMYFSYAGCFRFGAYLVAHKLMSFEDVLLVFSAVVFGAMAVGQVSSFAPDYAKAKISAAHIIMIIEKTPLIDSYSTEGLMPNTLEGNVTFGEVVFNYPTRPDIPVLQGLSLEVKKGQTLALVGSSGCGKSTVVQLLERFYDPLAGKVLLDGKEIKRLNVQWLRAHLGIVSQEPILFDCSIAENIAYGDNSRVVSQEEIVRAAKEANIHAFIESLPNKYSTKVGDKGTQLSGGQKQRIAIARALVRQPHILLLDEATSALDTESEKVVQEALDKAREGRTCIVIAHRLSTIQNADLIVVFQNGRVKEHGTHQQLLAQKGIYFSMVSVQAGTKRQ

P-gp = experiment: in vitro; conditions: dog, MDCK-MDR1
[6] = male, Sprague Dawley, brain, ip, 10 mg/kg
[7] = male, Sprague Dawley, plasma, ip, 10 mg/kg

CYP2D6, sequence (P10635 whole entry): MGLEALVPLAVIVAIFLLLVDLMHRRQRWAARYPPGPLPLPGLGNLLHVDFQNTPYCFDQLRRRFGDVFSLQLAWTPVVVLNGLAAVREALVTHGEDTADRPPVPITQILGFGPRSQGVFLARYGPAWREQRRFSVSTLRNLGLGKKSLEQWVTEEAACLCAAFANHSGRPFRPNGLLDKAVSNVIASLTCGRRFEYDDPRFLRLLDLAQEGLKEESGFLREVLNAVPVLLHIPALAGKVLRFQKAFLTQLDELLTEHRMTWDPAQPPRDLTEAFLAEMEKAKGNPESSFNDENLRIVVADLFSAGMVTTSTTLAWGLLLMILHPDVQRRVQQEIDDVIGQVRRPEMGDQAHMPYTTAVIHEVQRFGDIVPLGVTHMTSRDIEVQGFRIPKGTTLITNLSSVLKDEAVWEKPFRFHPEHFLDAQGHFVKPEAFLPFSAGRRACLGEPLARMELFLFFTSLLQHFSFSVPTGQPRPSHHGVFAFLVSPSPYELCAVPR

Structure (SMILES): OC[C@@H](O)[C@@H](O)[C@H](O)[C@H](O)CO [Mannitol, mannitol]
- Papp (in vitro): 3.23 ×10⁻⁶ cm/s

Structure (SMILES): COC(=O)[C@@H]1C[C@H](OC(C)=O)C(=O)[C@H]2[C@@]1(C)CC[C@H]1C(=O)O[C@H](c3ccoc3)C[C@]21C [Salvinorin A]
- % reduction of initial concentration (CYP2D6; 5 μM): 14.7±0.80% and 14.7(± 0.80) %
- % reduction of initial concentration (CYP2D6; 50 μM): 10(± 1.2) %
- % reduction of initial concentration (CYP1A1; 5 μM): 31.1±1.20% and 31.1(±1.20) %
- % reduction of initial concentration (CYP1A1; 50 μM): 5.3(±2) %
- % reduction of initial concentration (CYP2C18; 5 μM): 20.6(±1.00) %
- % reduction of initial concentration (CYP2C18; 50 μM): 6(±1.2) %
- % reduction of initial concentration (CYP2E1; 5 μM): 22(±0.80) %
- % reduction of initial concentration (CYP2E1; 50 μM): 6.4(±1.6) %
- % reduction of initial concentration (UGT2B7; 5 μM, two hour incubation): 51(± 4.00) %
- % reduction of initial concentration (UGT2B7; 10 μM, 1 h): 18.1(± 5.20) %
- % reduction of initial concentration (UGT2B7; 50 μM, 1 h): 7(±5.60) %
- t1/2 ([1]; brain): 36.1 min
- Kp ([1]; male, Sprague Dawley, brain and plasma, ip, 10 mg/kg): 0.05
- AUC(0-inf) [1, 6]: 20.6 ng·h/mL
- AUC(0-t) [1, 6]: 13 ng·h/mL
- Cmax [1, 6]: 23.9 ng/mL
- Tmax [1, 6]: 10 min
- half-life ([1]; male, Sprague Dawley, brain, ip, 10 mg/kg, t1/2, brain): 36 min
- Tmax ([1]; male, Sprague Dawley, plasma and brain, ip, 10 mg/kg): 10 to 15 min
- AUC(0-inf) [1, 7]: 410 ng·h/mL
- AUC(0-t) [1, 7]: 348 ng·h/mL
- CL/F [1, 7]: 433 mL/min/kg
- Cmax [1, 7]: 345 ng/mL
- Tmax [1, 7]: 15 min
- k el [1, 7]: 0.000153 s⁻¹
- half-life ([1]; male, Sprague Dawley, plasma, ip, 10 mg/kg, t1/2, plasma): 75 min
- k el ([1]; male, Sprague-Dawley, brain, ip, 10 mg/kg): 3.19e-05 s⁻¹
- Vd/F ([1]; male, Sprague-Dawley, plasma, ip, 10 mg/kg): 47.1 L/kg
- t1/2 ([1]; plasma): 75.4 min
- absorptive transport (Papp A→B) [2]: not detected
- duration of hallucinogenic experience [3]: ≤ 15 min
- time to appearance of hallucinogenic experience [3]: less than 1 min
- Papp B→A at 5 μM (P-gp (MDR1)): 40.7 ×10⁻⁶ cm/s
- elimination half-life [4]: 56.6 ± 24.8 min
- time to peak brain uptake after dosing [5]: 40 s
- rate of ATP consumption (P-gp ATPase activity) (recombinant human P-gp; 2.5 μM): 50.94 ± 17.87 pmol/μg P-gp/min
- Fold Stimulation of P-gp ATPase activity (recombinant human P-gp; 2.5 μM): 2.39
- rate of ATP consumption (P-gp ATPase activity) (recombinant human P-gp; 5 μM): 47.48 ± 3.36 pmol/μg P-gp/min and 47.78 ± 3.36 ^a pmol/μg P-gp/min
- Fold Stimulation of P-gp ATPase activity (recombinant human P-gp; 5 μM): 2.24
- rate of ATP consumption (P-gp ATPase activity) (recombinant human P-gp; 10 μM): 41.14 ± 5.86 pmol/μg P-gp/min and 41.14 ± 5.86 ^b pmol/μg P-gp/min
- Fold Stimulation of P-gp ATPase activity (recombinant human P-gp; 10 μM): 1.93
- rate of ATP consumption (P-gp ATPase activity) (recombinant human P-gp; 25 μM): 31.08 ± 21.18 pmol/μg P-gp/min
- Fold Stimulation of P-gp ATPase activity (recombinant human P-gp; 25 μM): 1.46

Structure (SMILES): CC(=O)O[C@H]1C(=O)[C@@]2(C)[C@H]([C@H](OC(=O)c3ccccc3)[C@]3(O)C[C@H](OC(=O)[C@H](O)[C@@H](NC(=O)c4ccccc4)c4ccccc4)C(C)=C1C3(C)C)[C@]1(OC(C)=O)CO[C@@H]1C[C@@H]2O [paclitaxel]
- efflux ratio (P-gp): 15.2
